Measured values published in US20210315882A1, “METHODS OF TREATING A PATIENT HAVING PARKINSON'S DISEASE” (Sunovion Pharmaceuticals Inc., priority 2019, published 2021).

System: patients with Parkinson's disease and “OFF” episodes
Experiment: Post hoc analysis of Phase 3 study: motor responses to apomorphine sublingual film compared with levodopa
Assay type: in vivo, human
Source text: Patients described in Table 9 were enrolled in a study. At screening, patients attended morning in-office visits in the “OFF” state and received their usual morning dose of levodopa without adjunctive PD medications and were both self- and investigator-assessed for a FULL “ON” response (levodopa challenge; FIG. 9). An “OFF” state was accomplished by withholding levodopa and any other adjunctive PD medications after midnight the night before each morning in-office visit.

Compound: N[C@@H](Cc1ccc(O)c(O)c1)C(=O)O [levodopa]
- Responder rate (≥30% decrease in MDS-UPDRS III score from predose) (15 minutes postdose): 18%
- Responder rate (≥30% decrease in MDS-UPDRS III score from predose) (30 minutes postdose): 50%
- time of mean peak response across the time points measured (MDS-UPDRS III score): 95 min
- magnitude of observed peak response in MDS-UPDRS III score (mean±SE) (across the time points measured): −27.9±1.20
- change in MDS-UPDRS III score from predose at 15 minutes postdose (mean±SE) (open-label, film at dose giving FULL “ON”, levodopa usual morning dose, n = 109): −6.0±0.72
